Data on 6 molecules can be found in PMC3362676 (Cellular Signalling, 2012).

One series has as its system CPM. The experiment in a line: HEK cells stably expressing CPM, in PBS. Conditions: human, 37 °C, up to 30 min.
The target of another series is kB2R (Homo sapiens, UniProt P30411). The settings on record: HEK-kB2R.
The conditions of series [1]: ref [2], [9], [21], [24]; cited from earlier work.
In series [2] the test system is HEK cells stably expressing kB1R. Conditions: HEK cells expressing only the kB1R; 10 μM peptide in PBS; 30 min, 37 °C; HPLC.

Ends that are not written are not given here. Peptide text beside a SMILES is read from it.

kB2R, sequence (P30411 whole entry): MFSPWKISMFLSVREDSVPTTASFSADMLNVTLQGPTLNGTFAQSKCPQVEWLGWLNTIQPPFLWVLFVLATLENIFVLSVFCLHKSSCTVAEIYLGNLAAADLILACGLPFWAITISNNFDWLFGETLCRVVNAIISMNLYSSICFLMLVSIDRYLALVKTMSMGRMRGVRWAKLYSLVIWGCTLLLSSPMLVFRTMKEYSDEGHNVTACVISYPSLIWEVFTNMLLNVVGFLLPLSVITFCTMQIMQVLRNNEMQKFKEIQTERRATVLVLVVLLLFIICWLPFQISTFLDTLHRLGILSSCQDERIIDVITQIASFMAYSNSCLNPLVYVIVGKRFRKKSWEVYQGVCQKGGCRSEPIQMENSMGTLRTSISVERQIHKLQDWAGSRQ

For RPPGFSPFK, in the series on CPM, the cleaved bond entry is recorded as “Phe-Lys9, 30 min”.

`N=C(N)NCCC[C@H](NC(=O)[C@H](Cc1ccccc1)NC(=O)[C@@H]1CCCN1C(=O)[C@H](CO)NC(=O)[C@H](Cc1ccccc1)NC(=O)CNC(=O)[C@@H]1CCCN1C(=O)[C@@H]1CCCN1C(=O)[C@@H](N)CCCNC(=N)N)C(=O)O` [BK, Bradykinin] (H-RPPGFSPFR-OH): the “maximal ERK1/2 phosphorylation maintained from 40 – 60 min” value at kB2R (1 μM BK, 40 – 60 min) came out at 40%.

Take KRPPGFSPFK: the cleaved bond entry with CPM is given as “Phe-Lys10, 30 min”.

As to RPPGFSPFR, the cleaved bond result in the series on CPM is reported as “Phe-Arg9, 30 min”.

Turning to `NCCCC[C@H](N)C(=O)N[C@@H](CCCN=C(N)N)C(=O)N1CCC[C@H]1C(=O)N1CCC[C@H]1C(=O)NCC(=O)N[C@@H](Cc1ccccc1)C(=O)N[C@@H](CO)C(=O)N1CCC[C@H]1C(=O)N[C@@H](Cc1ccccc1)C(=O)N[C@@H](CCCN=C(N)N)C(=O)O` [KD, Kallidin], the lifetime in vivo entry in series [1] was “lower than 30 seconds”. At kB2R (1 μM KD, 40 min), the “maximal ERK1/2 activation still remaining at 40 min” value was 80%.

Take `NC(N)=NCCC[C@H](NC(=O)[C@H](Cc1ccccc1)NC(=O)[C@@H]1CCCN1C(=O)[C@H](CO)NC(=O)[C@H](Cc1ccccc1)NC(=O)CNC(=O)[C@@H]1CCCN1C(=O)[C@@H]1CCCN1C(=O)[C@@H](N)CCCN=C(N)N)C(=O)O` [BK, Bradykinin] (H-RPPGFSPFR-OH): the hydrolysis of peptide result in series [2] is listed as “no detectable hydrolysis”. For the same molecule, the lifetime in vivo result in series [1] is on record as “lower than 30 seconds”.
